This is an account of results in ChEMBL document CHEMBL3108760, “Epigallocatechin 3-O-gallate induces 67 kDa laminin receptor-mediated cell death accompanied by downregulation of ErbB proteins and altered lipid raft clustering in mammary and epidermoid carcinoma cells” (J Nat Prod, 2014).

SMILES strings stand for the structures. The source made the active and inactive calls. The rule behind the calls is not given here.

Experiment [1] has as its system A-431. The experiment in a line: Downregulation of ErbB1 protein expression in human A431 cells in serum free medium at 50 uM after 24 hrs by immunofluorescence staining-based flow cytometric analysis. Format: functional.
Experiment [2] deals with SK-BR-3. Briefly: Reduction of clustering of GFP-GPI in lipid rafts of human SKBR3 cells at 100 uM after 12 hrs by confocal microscopic analysis. Format: functional, cell-based.
The nature of experiment [3]: Cell cycle arrest in human SKBR3 cells assessed as accumulation at G2/M phase at 50 to 75 uM after 36 hrs by propidium iodide staining-based flow cytometric analysis relative to control. The class given is functional. Conditions: SK-BR-3.
Experiment [4] can be described thus: Antiproliferative activity against human SKBR3 cells overexpressing ErbB in serum-free medium assessed as cell viability after 48 hrs by WST-1 assay. Format: functional, cell-based. Conditions: SK-BR-3, 48 h.
Experiment [5] concerns A-431. The experiment in a line: Cell cycle arrest in human A431 cells assessed as accumulation at G2/M phase at 50 to 75 uM after 36 hrs by propidium iodide staining-based flow cytometric analysis relative to control. The class given is functional.
Experiment [6] in a line: Cell cycle arrest in human SKBR3 cells assessed as decrease in accumulation at G0/G1 phase at 50 to 75 uM after 36 hrs by propidium iodide staining-based flow cytometric analysis. The class given is functional. To be noted: SK-BR-3.
Experiment [7] is described as follows: Antiproliferative activity against human SKBR3 cells overexpressing ErbB in complete medium assessed as cell viability after 48 hrs by WST-1 assay. The class given is functional, cell-based. Conditions: SK-BR-3, 48 h.
Experiment [8] concerns A-431. The experiment in a line: Reduction of clustering of GFP-GPI in lipid rafts of human A431 cells at 100 uM after 12 hrs by confocal microscopic analysis. Format: functional, cell-based.
In experiment [9] the test system is SK-BR-3. Briefly: Induction of apoptosis in human SKBR3 cells overexpressing ErbB in complete medium assessed as late apoptotic/necrotic cells at 50 to 75 uM after 72 hrs by annexin V-FITC/7-AAD staining-based flow cytometric analysis. The class given is functional, cell-based.
In experiment [10] the test system is A-431. The experiment in a line: Induction of apoptosis in human A431 cells overexpressing ErbB in complete medium assessed as late apoptotic/necrotic cells at 50 to 75 uM after 72 hrs by annexin V-FITC/7-AAD staining-based flow cytometric analysis. Format: functional, cell-based.
For experiment [11], the system named is SK-BR-3. The experiment in a line: Ratio of EC50 for human SKBR3 cells overexpressing ErbB in complete medium to EC50 for human SKBR3 cells overexpressing ErbB in serum-free medium. The class given is functional.
Experiment [12] is described as follows: Downregulation of ErbB2 protein expression in human SKBR3 cells in serum free medium at 50 uM after 24 hrs by immunofluorescence staining-based flow cytometric analysis. Format: functional, cell-based. Conditions: SK-BR-3.
In experiment [13] the test system is A-431. The experiment in a line: Antiproliferative activity against human A431 cells overexpressing ErbB in complete medium assessed as cell viability after 48 hrs by WST-1 assay. The class given is functional, cell-based. Conditions: A-431, 48 h.
The test system of experiment [14] is A-431. Briefly: Cell cycle arrest in human A431 cells assessed as decrease in accumulation at G0/G1 phase at 50 to 75 uM after 36 hrs by propidium iodide staining-based flow cytometric analysis. The class given is functional.
Experiment [15] concerns A-431. Briefly: Antiproliferative activity against human A431 cells overexpressing ErbB in serum-free medium assessed as cell viability after 48 hrs by WST-1 assay. The class given is functional, cell-based. To be noted: A-431, 48 h.
The test system of experiment [16] is A-431. The experiment in a line: Ratio of EC50 for human A431 cells overexpressing ErbB in complete medium to EC50 for human A431 cells overexpressing ErbB in serum-free medium. The class given is functional.
Experiment [17] concerns A-431. The experiment in a line: Cell cycle arrest in human A431 cells at 50 to 75 uM after 36 hrs by propidium iodide staining-based flow cytometric analysis. The class given is functional.
The subject of experiment [18] is A-431. The experiment in a line: Downregulation of ErbB1 protein expression in human A431 cells in serum free medium at 200 uM after 30 mins by immunofluorescence staining-based confocal microscopic analysis. The class given is functional, cell-based.
The nature of experiment [19]: Cell cycle arrest in human SKBR3 cells at 50 to 75 uM after 36 hrs by propidium iodide staining-based flow cytometric analysis. The class given is functional. Conditions: SK-BR-3.
Experiment [20] deals with Receptor tyrosine-protein kinase erbB-2 (Homo sapiens) (UniProt P04626). The experiment in a line: Induction of ErbB2 internalization in lysosome/endosome of human SKBR3 cells in serum free medium at 200 uM after 30 mins by immunofluorescence staining-based confocal microscopic analysis. The class given is cell-based. To be noted: SK-BR-3.
Experiment [21] concerns A-431. Briefly: Downregulation of ErbB1 protein expression in human A431 cells at 50 uM after 24 hrs by immunofluorescence staining-based flow cytometric analysis in presence of serum. The class given is functional, cell-based.
Experiment [22] has as its system SK-BR-3. Briefly: Induction of apoptosis in human SKBR3 cells overexpressing ErbB in complete medium assessed as late apoptotic/necrotic cells at 75 uM after 72 hrs by annexin V-FITC/7-AAD staining-based flow cytometric analysis relative to control. Format: functional.
The target of experiment [23] is Small ribosomal subunit protein uS2 (Homo sapiens) (UniProt P08865). The experiment in a line: Inhibition of 67LR co-localization in lipid rafts containing cholera toxin labeled GM1 gangliosides in human A431 cells after 30 mins by immunofluorescence-based confocal microscopic analysis (reference value: 75%). Format: cell-based. To be noted: A-431.
A short description of experiment [24]: Downregulation of ErbB2 protein expression in human SKBR3 cells in serum free medium at 200 uM after 30 mins by immunofluorescence staining-based confocal microscopic analysis. The class given is functional, cell-based. Conditions: SK-BR-3.
Experiment [25] is described as follows: Downregulation of ErbB2 protein expression in human SKBR3 cells at 50 uM after 24 hrs by immunofluorescence staining-based flow cytometric analysis in presence of serum. Conditions: SK-BR-3. The class given is functional, cell-based.
Experiment [26] deals with A-431. Briefly: Antiproliferative activity against anti-67LR treated human A431 cells overexpressing ErbB assessed as cell viability at 100 to 200 uM after 24 hrs by WST-1 staining-based spectrophotometric analysis. The class given is functional.
Experiment [27] has as its system A-431. The experiment in a line: Induction of apoptosis in human A431 cells overexpressing ErbB in complete medium assessed as late apoptotic/necrotic cells at 75 uM after 72 hrs by annexin V-FITC/7-AAD staining-based flow cytometric analysis relative to control. The class given is functional.
Experiment [28] concerns the target Receptor tyrosine-protein kinase erbB-2 (Homo sapiens) (UniProt P04626). Briefly: Induction of ErbB2 internalization in lysosome/endosome of human A431 cells in serum free medium at 200 uM after 30 mins by immunofluorescence staining-based confocal microscopic analysis. To be noted: A-431. The class given is cell-based.

Receptor tyrosine-protein kinase erbB-2 (Homo sapiens), sequence (P04626 whole entry): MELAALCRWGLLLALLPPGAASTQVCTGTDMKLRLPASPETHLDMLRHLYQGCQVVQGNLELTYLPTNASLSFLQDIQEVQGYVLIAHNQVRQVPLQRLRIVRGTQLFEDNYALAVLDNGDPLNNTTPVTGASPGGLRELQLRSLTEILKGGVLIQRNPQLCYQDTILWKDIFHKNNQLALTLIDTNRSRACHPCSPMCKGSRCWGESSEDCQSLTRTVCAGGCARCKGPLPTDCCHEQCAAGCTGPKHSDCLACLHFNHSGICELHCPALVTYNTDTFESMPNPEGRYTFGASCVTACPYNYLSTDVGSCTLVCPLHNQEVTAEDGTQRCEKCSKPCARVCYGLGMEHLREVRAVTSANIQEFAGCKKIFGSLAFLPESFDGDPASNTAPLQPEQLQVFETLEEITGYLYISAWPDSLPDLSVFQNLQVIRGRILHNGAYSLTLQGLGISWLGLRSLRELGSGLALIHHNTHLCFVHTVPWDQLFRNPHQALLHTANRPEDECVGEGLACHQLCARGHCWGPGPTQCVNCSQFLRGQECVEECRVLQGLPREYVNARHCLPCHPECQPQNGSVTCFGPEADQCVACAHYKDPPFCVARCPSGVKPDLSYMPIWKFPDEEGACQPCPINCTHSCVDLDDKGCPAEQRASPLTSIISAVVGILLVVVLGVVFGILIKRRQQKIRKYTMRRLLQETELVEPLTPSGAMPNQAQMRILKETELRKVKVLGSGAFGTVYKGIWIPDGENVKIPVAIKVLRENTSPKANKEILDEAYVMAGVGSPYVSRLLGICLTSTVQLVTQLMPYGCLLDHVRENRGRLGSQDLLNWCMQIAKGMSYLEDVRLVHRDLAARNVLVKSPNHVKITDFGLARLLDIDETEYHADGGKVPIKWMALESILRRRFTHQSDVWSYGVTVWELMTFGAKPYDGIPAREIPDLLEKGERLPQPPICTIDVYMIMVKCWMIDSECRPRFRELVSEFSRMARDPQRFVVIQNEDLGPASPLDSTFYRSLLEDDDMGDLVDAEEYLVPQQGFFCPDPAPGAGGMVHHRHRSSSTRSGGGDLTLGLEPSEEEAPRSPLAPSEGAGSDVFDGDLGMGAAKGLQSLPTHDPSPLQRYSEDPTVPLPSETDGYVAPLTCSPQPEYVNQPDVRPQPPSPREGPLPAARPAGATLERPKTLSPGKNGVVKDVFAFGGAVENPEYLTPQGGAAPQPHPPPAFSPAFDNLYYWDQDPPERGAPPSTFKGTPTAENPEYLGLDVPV

Turning to `O=c1c(-c2ccc(O)cc2)coc2cc(O)cc(O)c12` [GENISTEIN], the result (with A-431 [1]; with SK-BR-3 [2]; in the experiment on A-431 [8]; in the experiment with SK-BR-3 [9]; in [12]) was inactive. The Activity in experiment [3] is 50%. Moreover, the EC50 in experiment [4] was found to be 97 µM; in experiment [7], 403 µM; in the experiment on A-431 [13] it was 278 µM; in the experiment on A-431 [15], 108 µM. Further, the result (in the experiment with A-431 [5]; in [6]; in the experiment on A-431 [10]; with A-431 [14]) was Active. Also, the “Ratio EC50” value in the experiment on SK-BR-3 [11] and in the experiment on A-431 [16] was 2 each time.

With `O=C(O[C@@H]1Cc2c(O)cc(O)cc2O[C@@H]1c1cc(O)c(O)c(O)c1)c1cc(O)c(O)c(O)c1` [EPIGALOCATECHIN GALLATE], the Activity in the experiment with A-431 [1] was determined as 30%; in experiment [12], 30%; in the experiment with SK-BR-3 [22], 40%; with A-431 [27], 80%. Besides, the outcome (in the experiment on A-431 [17]; in experiment [19]; in the experiment on A-431 [21]; in [25]; in the experiment on A-431 [26]) was inactive. Moreover, the outcome (in the experiment with SK-BR-3 [2]; in the experiment on A-431 [18]; in the experiment with A-431 [8]; in [20]; in experiment [24]; in experiment [28]) was Active. In addition, the concentration giving a half-maximal response (EC50) in experiment [4] was found to be 100 µM; in experiment [7] it was 195 µM; in the experiment with A-431 [13], 266 µM; in the experiment on A-431 [15] it was 38 µM. Besides, the “Ratio EC50” value with SK-BR-3 [11] and with A-431 [16] was 2 each time. This compound also displayed an inhibition in [23] of 47%.
